Patent publication US9512075B2 (OKAYAMA UNIVERSITY, priority 2012, dated 2016)
In brackets after ≈: the same amount, converted by molar mass. Read-outs that look alike come from different tables or passages of the source.

Assays:
Assay type in all cases: cell-based
[1] = test system: Staphylococcus aureus Smith strain; assay: MIC for Staphylococcus aureus Smith strain; settings: read-out: MIC Straphyrococcus aureus Smith
[2] = test system: Staphylococcus aureus 209P strain; assay: MIC for Staphylococcus aureus 209P strain; settings: Staphylococcus aureus, read-out: MIC Straphyrococcus aureus 209P
[3] = test system: Staphylococcus aureus MRSA No. 17 (methicillin-resistant Staphylococcus aureus: MRSA); assay: MIC for Staphylococcus aureus MRSA No. 17; settings: read-out: MIC Straphyrococcus aureus MRSA No. 17 (MRSA)
[4] = test system: Enterococcus faecalis 5038 strain; assay: MIC for Enterococcus faecalis 5038 strain; settings: read-out: MIC Enterococcus faecalis 5038
[5] = test system: Enterococcus faecalis NCTC12201 strain (vancomycin-resistant Enterococcus: VRE); assay: MIC for Enterococcus faecalis NCTC12201 strain (VRE); settings: read-out: MIC Enterococcus faecalis NCTC 12201 (VRE)
[6] = test system: Clostridium difficile JCM1296 strain; assay: microbe, parasite or virus in culture; settings: for MIC: Clostridioides difficile, JCM1296, read-out: MIC Clostridium difficile JCM1296
[7] = test system: Clostridium perfringens PB6K strain; assay: microbe, parasite or virus in culture; settings: CD medium, 37° C. overnight, 10% CO2-containing anaerobic conditions; for MIC: Clostridium perfringens, PB6KSTRAIN, read-out: MIC Clostridium perfringens PB6K, PB6K strain
[8] = test system: Escherichia coli K-12 strain; assay: MIC for Escherichia coli K-12 strain; settings: Escherichia coli, K12STRAIN, read-out: MIC Escherichia coli K12
[9] = test system: Escherichia coli BE1121 strain; assay: MIC for Escherichia coli BE1121 strain; settings: Escherichia coli, BE1121STRAIN, read-out: MIC Escherichia coli BE1121
[10] = Smith strain, regular bouillon medium, 37° C. overnight, turbidity
[11] = MRSA No. 17, regular bouillon medium, 37° C. overnight, turbidity
[12] = 5038 strain, Heart Infusion Broth medium, 37° C. overnight, turbidity
[13] = NCTC12201 strain (VRE), Heart Infusion Broth medium, 37° C. overnight, turbidity
[14] = 209P strain, regular bouillon medium, 37° C. overnight, turbidity
[15] = K-12 strain, regular bouillon medium, 37° C. overnight, turbidity
[16] = BE1121 strain, regular bouillon medium, 37° C. overnight, turbidity

Q: Which MIC [1, 10] does the source give for `CCCCCCCCCC(O)=C1C(=O)N(C)c2ccccc21` [A007, N-methyl-3-decanoyl-2-oxyindole] here?
A: 8 µg/mL (≈ 26.5 µM)

Q: And the MIC ([2]; 209P)?
A: 32 µg/mL (≈ 106 µM)

Q: And the MIC [3, 11]?
A: 128 µg/mL (≈ 425 µM)

Q: And the MIC [4, 12]?
A: 32 µg/mL (≈ 106 µM)

Q: What about the MIC [5, 13] of the same molecule?
A: 15 µg/mL (≈ 49.8 µM)

Q: What about the MIC [6] of the same molecule?
A: 2 µg/mL (≈ 6.64 µM)

Q: And the MIC [7]?
A: 8 µg/mL (≈ 26.5 µM)

Q: And the MIC [8]?
A: 256 µg/mL (≈ 849 µM)

Q: And the MIC [9]?
A: 256 µg/mL (≈ 849 µM)

Q: Which MIC [1] does the source give for `CCCCCCCCCCOCC(O)=C1C(=O)N(C(C)=O)c2cc(Cl)ccc21` [A017, N-acetyl-3-decyloxyacetyl-6-chloro-2-oxyindole] here?
A: < 0.125 µg/mL

Q: And the MIC [2, 14]?
A: 128 µg/mL (≈ 314 µM)

Q: What about the MIC [3, 11] of the same molecule?
A: 16 µg/mL (≈ 39.2 µM)

Q: What about the MIC ([4]; 5038STRAIN) of the same molecule?
A: < 0.125 µg/mL

Q: What about the MIC [5] of the same molecule?
A: < 0.125 µg/mL

Q: And the MIC [6]?
A: < 0.125 µg/mL

Q: What about the MIC [7] of the same molecule?
A: < 0.125 µg/mL

Q: And the MIC [8, 15]?
A: 128 µg/mL (≈ 314 µM)

Q: What about the MIC [9, 16] of the same molecule?
A: 128 µg/mL (≈ 314 µM)

Q: How did the MIC [1, 10] turn out when `CCCCCCCCNC(=O)c1c(O)c2cc(F)ccc2oc1=O` [B022, 6-fluoro-3-(octylaminocarbonyl)-4-hydroxycoumarin] was run?
A: 128 µg/mL (≈ 382 µM)

Q: And the MIC [2, 14]?
A: 128 µg/mL (≈ 382 µM)

Q: And the MIC [3, 11]?
A: 256 µg/mL (≈ 763 µM)

Q: What about the MIC [4, 12] of the same molecule?
A: 256 µg/mL (≈ 763 µM)

Q: And the MIC [5, 13]?
A: 256 µg/mL (≈ 763 µM)

Q: And the MIC [6]?
A: 16 µg/mL (≈ 47.7 µM)

Q: And the MIC [7]?
A: 64 µg/mL (≈ 191 µM)

Q: What about the MIC [8, 15] of the same molecule?
A: 256 µg/mL (≈ 763 µM)

Q: And the MIC [9, 16]?
A: 128 µg/mL (≈ 382 µM)

Q: Which MIC [1] does the source give for `CCCCCCCCOCC(=O)c1c(O)c2ccccc2oc1=O` [B030, 3-octyloxyacetyl-4-hydroxycoumarin] here?
A: 2 µg/mL (≈ 6.02 µM)

Q: What about the MIC [2, 14] of the same molecule?
A: 4 µg/mL (≈ 12 µM)

Q: And the MIC ([3]; MRSA)?
A: 1 µg/mL (≈ 3.01 µM)

Q: What about the MIC ([4]; 5038STRAIN) of the same molecule?
A: 2 µg/mL (≈ 6.02 µM)

Q: And the MIC [5]?
A: 4 µg/mL (≈ 12 µM)

Q: And the MIC [6]?
A: 0.25 µg/mL (≈ 0.752 µM)

Q: And the MIC [7]?
A: 0.25 µg/mL (≈ 0.752 µM)

Q: What about the MIC [8, 15] of the same molecule?
A: 128 µg/mL (≈ 385 µM)

Q: What about the MIC [9, 16] of the same molecule?
A: 2 µg/mL (≈ 6.02 µM)

Q: With `CC(C)[C@H]1CC[C@H](C)CC1OCC(=O)c1c(O)c2ccccc2oc1=O` (stereo in doubt) [B006, 4-hydroxy-3-menthyloxyacetylcoumarin] as the molecule, how does the MIC [1, 10] read?
A: 1 µg/mL (≈ 2.79 µM)

Q: And the MIC [2, 14]?
A: 1 µg/mL (≈ 2.79 µM)

Q: What about the MIC [3, 11] of the same molecule?
A: 2 µg/mL (≈ 5.58 µM)

Q: And the MIC [4, 12]?
A: 2 µg/mL (≈ 5.58 µM)

Q: And the MIC [5, 13]?
A: 2 µg/mL (≈ 5.58 µM)

Q: And the MIC [6]?
A: 2 µg/mL (≈ 5.58 µM)

Q: And the MIC [7]?
A: 1 µg/mL (≈ 2.79 µM)

Q: What about the MIC [8, 15] of the same molecule?
A: 128 µg/mL (≈ 357 µM)

Q: And the MIC [9, 16]?
A: 2 µg/mL (≈ 5.58 µM)

Q: Which MIC [1] does the source give for `CCCCCCCCCCSCC(=O)c1c(O)c2ccccc2oc1=O` [B023] here?
A: 0.25 µg/mL (≈ 0.664 µM)

Q: And the MIC [2, 14]?
A: 1 µg/mL (≈ 2.66 µM)

Q: What about the MIC ([3]; MRSA) of the same molecule?
A: 1 µg/mL (≈ 2.66 µM)

Q: And the MIC ([4]; 5038STRAIN)?
A: 0.25 µg/mL (≈ 0.664 µM)

Q: What about the MIC ([5]; NCTC12201|VRE) of the same molecule?
A: 0.25 µg/mL (≈ 0.664 µM)

Q: And the MIC [6]?
A: < 0.125 µg/mL

Q: What about the MIC [7] of the same molecule?
A: < 0.125 µg/mL

Q: And the MIC [8, 15]?
A: 256 µg/mL (≈ 680 µM)

Q: What about the MIC [9, 16] of the same molecule?
A: 2 µg/mL (≈ 5.31 µM)

Q: Which MIC [1, 10] does the source give for `CCCCCCCCCC(O)=C1C(=O)N(C(C)=O)c2ccc(Br)cc21` [A026, N-acetyl-5-bromo-3-decanoyl-2-oxyindole] here?
A: 0.25 µg/mL (≈ 0.612 µM)

Q: What about the MIC [2, 14] of the same molecule?
A: 4 µg/mL (≈ 9.8 µM)

Q: What about the MIC [3, 11] of the same molecule?
A: 4 µg/mL (≈ 9.8 µM)

Q: What about the MIC ([4]; 5038STRAIN) of the same molecule?
A: < 0.125 µg/mL

Q: And the MIC [5]?
A: < 0.125 µg/mL

Q: And the MIC [6]?
A: < 0.125 µg/mL

Q: What about the MIC [7] of the same molecule?
A: 0.25 µg/mL (≈ 0.612 µM)

Q: And the MIC [8, 15]?
A: 128 µg/mL (≈ 313 µM)

Q: And the MIC [9, 16]?
A: 8 µg/mL (≈ 19.6 µM)

Q: What does the source list for `CCCCCCCCCCOCC(O)=C1C(=O)N(C(=O)Nc2ccc(OC)cc2)c2ccccc21` [A045, N-(4-methoxyphenylaminocarbonyl)-3-decyloxyacetyl-2-oxyindole]?
A: MIC [1, 10]: 128 µg/mL (≈ 266 µM); MIC [2, 14]: 256 µg/mL (≈ 533 µM); MIC [3, 11]: 256 µg/mL (≈ 533 µM); MIC [4, 12]: 4 µg/mL (≈ 8.32 µM); MIC [5, 13]: 64 µg/mL (≈ 133 µM); MIC [6]: 0.5 µg/mL (≈ 1.04 µM); MIC [7]: 8 µg/mL (≈ 16.6 µM); MIC [8, 15]: 128 µg/mL (≈ 266 µM); MIC [9, 16]: 128 µg/mL (≈ 266 µM)

Q: Which MIC [1, 10] does the source give for `CCCCCCCCCCOCC(O)=C1C(=O)N(C(=O)OC(C)(C)C)c2cc(Cl)ccc21` [A012, N-Boc-3-decyloxyacetyl-6-chloro-2-oxyindole] here?
A: 256 µg/mL (≈ 549 µM)

Q: And the MIC [2, 14]?
A: 256 µg/mL (≈ 549 µM)

Q: And the MIC [3, 11]?
A: 256 µg/mL (≈ 549 µM)

Q: And the MIC [4, 12]?
A: 256 µg/mL (≈ 549 µM)

Q: And the MIC [5, 13]?
A: 256 µg/mL (≈ 549 µM)

Q: And the “MIC Clostridium difficile JCM1296” value [6]?
A: 32 µg/mL (≈ 68.7 µM)

Q: And the “MIC Clostridium perfringens PB6K” value ([7]; PB6K strain)?
A: 32 µg/mL (≈ 68.7 µM)

Q: What about the MIC [8, 15] of the same molecule?
A: 256 µg/mL (≈ 549 µM)

Q: And the MIC [9, 16]?
A: 256 µg/mL (≈ 549 µM)

Q: Which MIC [1, 10] does the source give for `CCCCC1CCC(C(O)=C2C(=O)N(C(=O)Nc3ccc(F)cc3)c3ccccc32)CC1` (stereo not drawn) [A043, N-(4-fluorophenylaminocarbonyl)-3-(4-butylcyclohexylcarbonyl)-2-oxyindole] here?
A: 1 µg/mL (≈ 2.29 µM)

Q: What about the MIC [2, 14] of the same molecule?
A: 256 µg/mL (≈ 586 µM)

Q: What about the MIC [3, 11] of the same molecule?
A: 128 µg/mL (≈ 293 µM)

Q: And the MIC [4, 12]?
A: 1 µg/mL (≈ 2.29 µM)

Q: What about the MIC [5, 13] of the same molecule?
A: 1 µg/mL (≈ 2.29 µM)

Q: And the MIC [6]?
A: 1 µg/mL (≈ 2.29 µM)

Q: What about the MIC [7] of the same molecule?
A: 4 µg/mL (≈ 9.16 µM)

Q: And the MIC [8, 15]?
A: 256 µg/mL (≈ 586 µM)

Q: What about the MIC [9, 16] of the same molecule?
A: 256 µg/mL (≈ 586 µM)

Q: What does the source list for `CCCCC1CCC(C(O)=C2C(=O)N(C(=O)Nc3ccccc3)c3ccc(Br)cc32)CC1` (stereo not drawn) [A034, N-(phenylaminocarbonyl)-5-bromo-3-(4-butylcyclohexylcarbonyl)-2-oxyindole]?
A: MIC [1, 10]: 1 µg/mL (≈ 2.01 µM); MIC [2, 14]: 32 µg/mL (≈ 64.3 µM); MIC [3, 11]: 64 µg/mL (≈ 129 µM); MIC [4, 12]: 1 µg/mL (≈ 2.01 µM); MIC [5, 13]: 1 µg/mL (≈ 2.01 µM); MIC [6]: 0.5 µg/mL (≈ 1.01 µM); MIC [7]: 0.5 µg/mL (≈ 1.01 µM); MIC [8, 15]: 128 µg/mL (≈ 257 µM); MIC [9, 16]: 128 µg/mL (≈ 257 µM)
